Laboratory results taken from patent US20150175599A1, “FAAH Inhibitors” (Ironwood Pharmaceuticals, Inc., priority 2010, published 2015).

What follows are compounds tested against T1, FAAH (Rattus norvegicus, UniProt P97612) (assay: FAAH inhibition, rat brain membrane homogenate assay). Conditions: rat brain homogenate; average activity; read-out: Rat Brain Extract FAAH IC50.
T1 construct: For the assay of FAAH activity in rat brain membrane (RBM) homogenates; tissue Charles River (animals); host or cells: rat whole brain, membrane fraction
T1 sequence (P97612 1-579): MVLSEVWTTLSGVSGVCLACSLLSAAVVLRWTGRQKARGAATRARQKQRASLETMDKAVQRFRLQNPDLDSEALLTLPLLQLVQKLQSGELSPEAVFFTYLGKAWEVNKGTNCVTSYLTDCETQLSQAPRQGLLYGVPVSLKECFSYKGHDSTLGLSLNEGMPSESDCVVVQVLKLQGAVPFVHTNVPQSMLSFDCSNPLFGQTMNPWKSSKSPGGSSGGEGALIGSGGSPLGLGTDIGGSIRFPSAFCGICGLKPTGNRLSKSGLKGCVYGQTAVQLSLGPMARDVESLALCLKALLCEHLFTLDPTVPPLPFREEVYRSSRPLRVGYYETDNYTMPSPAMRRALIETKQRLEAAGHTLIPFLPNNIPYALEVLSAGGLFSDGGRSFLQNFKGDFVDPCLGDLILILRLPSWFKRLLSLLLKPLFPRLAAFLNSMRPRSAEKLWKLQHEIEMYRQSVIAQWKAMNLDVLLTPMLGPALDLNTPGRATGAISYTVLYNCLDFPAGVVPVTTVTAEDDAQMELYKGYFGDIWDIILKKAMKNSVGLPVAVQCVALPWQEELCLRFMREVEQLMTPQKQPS
Format: biochemical
Procedure: Adult rats (Charles River CD strain, female, 200 g) were anaesthetized with isofluorane and rapidly decapitated. Each brain was quickly removed and chilled in tubes (3 brains per tube) on ice. About 25 mL of “homogenization buffer” (20 mM HEPES buffer, pH 7.0, with 1 mM MgCl2) was added to 15 to 20 g of brain. The brains were homogenized on ice for 1 minute using an Omni GLH homogenizer (Omni International, Marietta, Ga.). The homogenates were then transferred to three centrifuge tubes and centrifuged at 36,500 g for 20 minutes at 4° C. The supernatant was discarded and each pellet was re-suspended in 25 mL homogenization buffer. The re-suspended material was again centrifuged (36,500 g, 20 minutes at 4° C.). Pellets were combined by re-suspension in 10 mL of homogenization buffer and incubated in a 37° C. water bath for 15 minutes. The tubes were then placed on ice for 5 minutes followed by centrifugation at 36,500 g for 20 minutes at 4° C. The supernatant was discarded and the membrane pellets were then re-suspended in 40 mL of “re-suspension buffer” (50 mM Tris-HCl buffer, pH 7.4, containing 1 mM EDTA and 3 mM MgCl2). A Bradford Protein assay was performed to determine protein concentration. The protein was aliquotted into screw cap Cryo tubes each containing −400 μL, flash-frozen in liquid nitrogen and stored at −80° C. until used for the assay. A similar protocol was used to obtain brain membrane homogenates from mice
FAAH activity was assayed in the respective homogenates described herein (Rat brain, Mouse brain or Human brain) with certain of the exemplary compounds described above using a modification of the method of Omeir et al. (1995 Life Sci. 56:1999) and Fowler et al. (1997 J. Pharmacol. Exp. Ther. 283:729). For the assay of FAAH activity in rat brain membrane (RBM) homogenates, RBM homogenates (7 μg protein in 20 μL final volume of 10 mM Tris pH 6.5) were mixed with 180 μL of a mixture of the following: […] unlabelled anandamide (AEA), 0.03 Ci radio labeled anandamide [ethanolamine 1-^3H](40-60 Ci/mmol; product number ART-626, American Radiolabelled Chemicals, St. Louis, Mo.), 1 mg/mL Bovine Serum Albumin (fatty acid-free BSA, electrophoresis grade, Sigma, St. Louis, Mo.), 10 mM Tris-HCl (pH 6.5), and 1 mM EDTA in the presence and absence of test compounds (vehicle was DMSO at a final concentration of 1%) and incubated for 10 minutes at 37° C. Samples were placed on ice to terminate the reactions.
The ^3H-ethanolamine product and un-reacted ^3H-anandamide substrate were then separated by either: (1) using chloroform/methanol extraction or (2) passing the reaction mixture through a glass fiber filter containing activated charcoal. Samples were extracted with chloroform/methanol by adding 0.4 mL of chloroform/methanol (1:1 v/v), vigorously mixing the samples, and separating the aqueous and organic phases by centrifugation. Radioactivity (corresponding to FAAH-catalyzed breakdown of ^3H-anandamide) found in aliquots (0.2 mL) of the aqueous phase was determined by liquid scintillation counting with quench correction. IC50 values were determined as described by Jonsson et al. (2001 Br. J Pharmacol. 133:1263). Alternatively, reactions were purified using a modification of the solid-phase extraction method described by Wilson et al (2003 Anal. Biochem. 318: 270). This method was modified as follows: after reactions were incubated at 37° C. for 10 minutes and chilled on ice, the reaction mixtures were acidified by adding 10 μL of sodium phosphate solution[0.5M (pH 2.0)]. Next, 90 μL aliquots of the acidified reaction mixtures were applied to activated charcoal (that had been previously washed with methanol as described by Wilson et al. (supra)) containing 80 μL of water on top of a glass fiber filter, centrifuged, and the radioactivity in the eluate was counted as described previously by Wilson et al. (supra). […]
COc1cc(NC(=O)C(=O)c2c(C)n(Cc3ccc(Cl)cc3)c3ccc(OC)c(F)c23)ccn1 [Compound 59, 2-(1-(4-chlorobenzyl)-4-fluoro-5-methoxy-2-methyl-1H-indol-3-yl)-N-(2-methoxypyridin-4-yl)-2-oxoacetamide] was tested, and the IC50 was < 100 nM. For COc1cc(NC(=O)C(=O)c2c(C)n(Cc3ccc(Cl)cc3)c3ccc(N(C)C)cc23)ccn1 [Compound 17, 2-(1-(4-chlorobenzyl)-5-(dimethylamino)-2-methyl-1H-indol-3-yl)-N-(2-methoxypyridin-4-yl)-2-oxoacetamide], the IC50 was < 100 nM. For COc1cc(NC(=O)C(=O)c2c(C)n(Cc3ccc(Cl)cc3)c3ccc(Br)cc23)ccn1 [Compound 18, 2-(5-bromo-1-(4-chlorobenzyl)-2-methyl-1H-indol-3-yl)-N-(2-methoxypyridin-4-yl)-2-oxoacetamide], the IC50 was < 100 nM. With COc1cc(NC(=O)C(=O)c2c(C)n(Cc3ncc(Cl)cc3F)c3ccc(C)cc23)ccn1 [Compound 33, 2-(1-((5-chloro-3-fluoropyridin-2-yl)methyl)-2,5-dimethyl-1H-indol-3-yl)-N-(2-methoxypyridin-4-yl)-2-oxoacetamide] the IC50 was < 100 nM. For COc1cc(NC(=O)C(=O)c2c(C)n(Cc3ccc(Cl)cc3)c3ccc(CO)cc23)ccn1 [Compound 8, 2-(1-(4-chlorobenzyl)-5-(hydroxymethyl)-2-methyl-1H-indol-3-yl)-N-(2-methoxypyridin-4-yl)-2-oxoacetamide], the IC50 was < 100 nM. For COc1cc(NC(=O)C(=O)c2c(C)n(Cc3ccc(Cl)cc3)c3ccc(N)c(Cl)c23)ccn1 [Compound 73, 2-(5-amino-4-chloro-1-(4-chlorobenzyl)-2-methyl-1H-indol-3-yl)-N-(2-methoxypyridin-4-yl)-2-oxoacetamide], the IC50 was 100 to 1000 nM. COc1ccc(Cn2c(C)c(C(=O)C(=O)Nc3ccnc(OC)c3)c3cc(OC)c(F)cc32)nc1 [Compound 32, 2-(6-fluoro-5-methoxy-1-((5-methoxypyridin-2-yl)methyl)-2-methyl-1H-indol-3-yl)-N-(2-methoxypyridin-4-yl)-2-oxoacetamide] was tested, and the IC50 was < 100 nM. With COc1cc(NC(=O)C(=O)c2c(C)n(Cc3ccc(Cl)cc3)c3ccc(OC(C)=O)cc23)ccn1 [Compound 1, 1-(4-chlorobenzyl)-3-(2-(2-methoxypyridin-4-ylamino)-2-oxoacetyl)-2-methyl-1H-indol-5-yl acetate] the IC50 was < 100 nM. In the case of COc1cc(NC(=O)C(=O)c2c(C)n(Cc3ccc(Cl)cn3)c3cc(C)c(OC)cc23)ccn1 [Compound 95, 2-(1-((5-chloropyridin-2-yl)methyl)-5-methoxy-2,6-dimethyl-1H-indol-3-yl)-N-(2-methoxypyridin-4-yl)-2-oxoacetamide], the IC50 is reported as < 100 nM. Compound COc1ccc2c(c1)c(C(=O)C(=O)Nc1ccnc(O)c1)c(C)n2Cc1ccc(Cl)cc1 [Compound 50, 2-(1-(4-chlorobenzyl)-5-methoxy-2-methyl-1H-indol-3-yl)-N-(2-hydroxypyridin-4-yl)-2-oxoacetamide] has an IC50 of 1000 to 10000 nM. With COc1cc(NC(=O)C(=O)c2c(C)n(Cc3ncc(Cl)cc3Cl)c3ccccc23)ccn1 [Compound 31, 2-(1-((3,5-dichloropyridin-2-yl)methyl)-2-methyl-1H-indol-3-yl)-N-(2-methoxypyridin-4-yl)-2-oxoacetamide] the IC50 was < 100 nM. In the case of COc1cc(NC(=O)C(=O)c2c(C)n(Cc3ccc(F)cc3F)c3cc(F)c(OC)cc23)ccn1 [Compound 14, 2-(1-(2,4-difluorobenzyl)-6-fluoro-5-methoxy-2-methyl-1H-indol-3-yl)-N-(2-methoxypyridin-4-yl)-2-oxoacetamide], the IC50 is reported as < 100 nM. For COc1ccc2c(c1)c(C(=O)C(=O)Nc1ccnc(OC)c1)c(C)n2Cc1ncc(Cl)cc1OC [Compound 100, 2-(1-((5-chloro-3-methoxypyridin-2-yl)methyl)-5-methoxy-2-methyl-1H-indol-3-yl)-N-(2-methoxypyridin-4-yl)-2-oxoacetamide], the IC50 was < 100 nM. With COc1cc(NC(=O)C(=O)c2c(C)n(Cc3ncc(F)cc3F)c3cc(F)c(OC)cc23)ccn1 [Compound 101, 2-(1-((3,5-difluoropyridin-2-yl)methyl)-6-fluoro-5-methoxy-2-methyl-1H-indol-3-yl)-N-(2-methoxypyridin-4-yl)-2-oxoacetamide] the IC50 was < 100 nM. COc1cc(NC(=O)C(=O)c2c(C)n(Cc3ccc(Cl)cc3)c3ccc(NC(C)=O)cc23)ccn1 [Compound 22, 2-(5-acetamido-1-(4-chlorobenzyl)-2-methyl-1H-indol-3-yl)-N-(2-methoxypyridin-4-yl)-2-oxoacetamide] gave an IC50 of 100 to 1000 nM. In the case of COc1cc(NC(=O)C(=O)c2c(C)n(Cc3ccc(Cl)cn3)c3cc(OC)c(Cl)cc23)ccn1 [Compound 67, 2-(5-chloro-1-((5-chloropyridin-2-yl)methyl)-6-methoxy-2-methyl-1H-indol-3-yl)-N-(2-methoxypyridin-4-yl)-2-oxoacetamide], the IC50 is reported as < 100 nM. In the case of COc1ccc(Cn2c(C)c(C(=O)C(=O)Nc3ccnc(OC)c3)c3cc(OC)cnc32)nc1 [Compound 40, 2-(5-methoxy-1-((5-methoxypyridin-2-yl)methyl)-2-methyl-1H-pyrrolo[2,3-b]pyridin-3-yl)-N-(2-methoxypyridin-4-yl)-2-oxoacetamide], the IC50 is reported as < 100 nM. In the case of COc1cc(NC(=O)C(=O)c2c(C)n(Cc3ccc(Cl)cc3)c3cc(OC)c(OC)cc23)ccn1 [Compound 44, 2-(1-(4-chlorobenzyl)-5,6-dimethoxy-2-methyl-1H-indol-3-yl)-N-(2-methoxypyridin-4-yl)-2-oxoacetamide], the IC50 is reported as < 100 nM. COc1cc(NC(=O)C(=O)c2c(C)n(Cc3ccc(Cl)cc3)c3cccc(OC)c23)ccn1 [Compound 45, 2-(1-(4-chlorobenzyl)-4-methoxy-2-methyl-1H-indol-3-yl)-N-(2-methoxypyridin-4-yl)-2-oxoacetamide] was tested, and the IC50 was < 100 nM. For COc1cc(NC(=O)C(=O)c2c(C)n(Cc3ccc(Cl)cn3)c3cc(F)c(OC)cc23)ccn1 [Compound 64, 2-(1-((5-chloropyridin-2-yl)methyl)-6-fluoro-5-methoxy-2-methyl-1H-indol-3-yl)-N-(2-methoxypyridin-4-yl)-2-oxoacetamide], the IC50 was < 100 nM. COc1cc(NC(=O)C(=O)c2c(C)n(Cc3ccc(Cl)cc3)c3cc(C)c(OC)cc23)ccn1 [Compound 74, 2-(1-(4-chlorobenzyl)-5-methoxy-2,6-dimethyl-1H-indol-3-yl)-N-(2-methoxypyridin-4-yl)-2-oxoacetamide] was tested, and the IC50 was < 100 nM. With COc1ccc2c(c1)c(C(=O)C(=O)Nc1ccnc(OC)c1)c(C)n2Cc1ccc(S(C)(=O)=O)cc1 [Compound 39, 2-(5-methoxy-2-methyl-1-(4-(methylsulfonyl)benzyl)-1H-indol-3-yl)-N-(2-methoxypyridin-4-yl)-2-oxoacetamide] the IC50 was 1000 to 10000 nM.
